Measurements from paper PMC7928206 (Toxicology in vitro : an international journal published in …, 2021).

Legend:
[1] = biological target: rat serum butyrylcholinesterase (BChE) (Rattus norvegicus, UniProt Q9JKC1); type: biochemical
[2] = biological target: T1, rat brain acetylcholinesterase (AChE) (Rattus norvegicus, UniProt P37136); type: biochemical; conditions: in brain and peripheral tissues
T1 sequence (P37136 32-614): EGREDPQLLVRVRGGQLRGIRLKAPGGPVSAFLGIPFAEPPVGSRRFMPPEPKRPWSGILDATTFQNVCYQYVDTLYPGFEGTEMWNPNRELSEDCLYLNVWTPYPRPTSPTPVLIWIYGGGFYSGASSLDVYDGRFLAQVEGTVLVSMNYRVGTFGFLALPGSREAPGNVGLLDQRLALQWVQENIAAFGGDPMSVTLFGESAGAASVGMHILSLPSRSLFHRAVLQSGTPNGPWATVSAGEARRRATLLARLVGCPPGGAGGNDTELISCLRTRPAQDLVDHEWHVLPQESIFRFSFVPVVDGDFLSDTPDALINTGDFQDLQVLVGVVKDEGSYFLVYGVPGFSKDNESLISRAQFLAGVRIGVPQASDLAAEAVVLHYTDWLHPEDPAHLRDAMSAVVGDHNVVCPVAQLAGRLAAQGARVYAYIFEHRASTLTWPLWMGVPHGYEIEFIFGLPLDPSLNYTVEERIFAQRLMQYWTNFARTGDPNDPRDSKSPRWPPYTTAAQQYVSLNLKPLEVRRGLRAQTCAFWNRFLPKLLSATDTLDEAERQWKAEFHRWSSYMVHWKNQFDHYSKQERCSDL

[3] = Observed stability of the compound; conditions: also propensity to adhere to glass

Chain of rat serum butyrylcholinesterase (BChE) (Q9JKC1 24-597): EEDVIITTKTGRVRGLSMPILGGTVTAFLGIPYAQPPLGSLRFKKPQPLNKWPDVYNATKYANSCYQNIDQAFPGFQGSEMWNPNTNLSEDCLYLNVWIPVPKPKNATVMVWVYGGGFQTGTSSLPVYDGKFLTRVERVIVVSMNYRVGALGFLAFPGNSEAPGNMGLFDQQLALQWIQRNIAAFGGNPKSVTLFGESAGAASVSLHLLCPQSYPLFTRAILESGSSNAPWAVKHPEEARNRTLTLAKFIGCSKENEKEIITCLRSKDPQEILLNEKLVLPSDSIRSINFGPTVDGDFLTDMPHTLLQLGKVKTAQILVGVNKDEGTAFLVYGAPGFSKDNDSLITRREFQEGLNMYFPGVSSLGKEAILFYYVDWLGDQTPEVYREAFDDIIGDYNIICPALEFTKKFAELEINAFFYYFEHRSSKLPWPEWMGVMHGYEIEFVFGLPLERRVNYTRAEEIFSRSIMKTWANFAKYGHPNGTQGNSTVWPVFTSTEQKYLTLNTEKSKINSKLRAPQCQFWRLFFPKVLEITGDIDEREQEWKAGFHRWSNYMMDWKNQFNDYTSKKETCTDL

## COP(=O)(OC)SCn1nnc2ccccc2c1=O [Azinphos-methyl-oxon]
[1]
  Serum BChE inhibition, result in words: not good inhibitors of serum BChE

## CCOP(=O)(OCC)Oc1nc(Cl)c(Cl)cc1Cl [Chlorpyrifos-oxon]
[2]
  fold more potent AChE inhibitor than ethyl-ronnel-oxon: about 70 fold

## CCOP(=O)(OCC)Oc1cc(C)nc(C(C)C)n1 [Diazoxon]
[3]
  stability, result in words: particularly unstable
